Results published in paper PMC9332707, “Bio-Guided Isolation of SARS-CoV-2 Main Protease Inhibitors from Medicinal Plants: In Vitro Assay and Molecular Dynamics” (Plants, 2022).
In brackets after ≈: the same amount, converted by molar mass. Where two headings read alike, the source gives them in different places.

Columns and labels:
SARS-CoV-2 M^PRO = SARS-CoV-2 M^PRO (Severe acute respiratory syndrome coronavirus 2, UniProt P0DTD1); assay: biochemical; assay type: biochemical
[1] = test system: SARS-CoV-2 (hCoV-19/Egypt/NRC-03/2020); assay: microbe, parasite or virus in culture; assay type: cell-based; conditions: for selectivity index CC50/IC50: CC50 (VERO-E6) / antiviral IC50
in vitro = conditions: African green monkey
M^PRO = conditions: read-out: reported bioassay IC50 (M^PRO); reported for the co-crystallized inhibitors (PDB 7CBT, 6W63); ref not given; cited from earlier work
SARS-CoV-2 infection = test system: SARS-CoV-2 infection; set-up: method as in PMID 33203926; conditions: read-out: IC50 against SARS-CoV-2 infection; cited from earlier work
[2] = set-up: method as in PMID 33203926; conditions: cited from earlier work
[3] = cited from earlier work
MTT cytotoxicity assay = conditions: African green monkey
[4] = set-up: method as in earlier work; conditions: dose of 5 mg/day to 2600 mg/day, without any toxic symptoms; cited from earlier work
[5] = set-up: method as in PMID 24924310; conditions: cited from earlier work
[6] = relative to GC376 standard inhibitor, read-out: IC50 on SARS-CoV-2 viral main protease
[7] = Severe acute respiratory syndrome coronavirus 2, Vero C1008, hCoV-19/Egypt/NRC-03/2020 on Vero-E6 cells, read-out: IC50 antiviral activity against SARS-CoV-2
[8] = Severe acute respiratory syndrome coronavirus 2, Vero C1008, read-out: IC50 antiviral activity against SARS-CoV-2

With `COc1cc(-c2cc(=O)c3c(O)c(OC)c(OC)c(OC)c3o2)cc(OC)c1OC` [Gardenin A] the “% Inhibition of SARS-CoV-2 M^PRO by isolated compounds” value (shortened to “% Inhibition of SARS-CoV-2 M^PRO”) (SARS-CoV-2 M^PRO) was 73.80%, the IC50 (SARS-CoV-2 M^PRO; [6]) was 5.96 µM and the “selectivity index CC50/IC50” value [1] was 2.9. The IC50 [1, 7] was 83.8 µg/mL (≈ 200 µM) and the CC50 (in vitro) was 246 µg/mL (≈ 589 µM).
For `COc1ccc(-c2cc(=O)c3c(O)c(OC)c(OC)c(OC)c3o2)cc1` [Gardenin B], the “% Inhibition of SARS-CoV-2 M^PRO” value (SARS-CoV-2 M^PRO) was 1.00%.
For `CC(C)C[C@H](NC(=O)OCc1ccccc1)C(=O)N[C@@H](CC1CCNC1=O)C(O)S(=O)(=O)O` (stereo partly drawn) [GC376], the IC50 (M^PRO) is given as 0.026 µM.
For `CCCCC[C@H](O)CC(=O)CCc1ccc(O)c(OC)c1` [6-Gingerol], the “% Inhibition of SARS-CoV-2 M^PRO” value (SARS-CoV-2 M^PRO) was 65.2%, the IC50 (SARS-CoV-2 M^PRO) was 9.33 µM and the “selectivity index CC50/IC50” value [1] was 2.3. For the same compound, the IC50 [1, 8] was 43.5 µg/mL (≈ 148 µM), the IC50 (SARS-CoV-2 infection) was greater than 100 µM and the CC50 [2] was greater than 100 µM. The “absorption after oral administration” value ([3]; detected in blood as glucuronide and sulfate conjugates) was “well-absorbed”, the “toxicity / tolerability in humans” value ([3]; doses up to 2.0 g daily, only mild gastrointestinal complaints) was “low levels of toxicity and high levels of tolerability” and the CC50 (MTT cytotoxicity assay) was 101 µg/mL (≈ 344 µM).
For `CC1=CC(=O)C(C(C)C)=CC1=O` [Thymoquinone], the “% Inhibition of SARS-CoV-2 M^PRO” value (SARS-CoV-2 M^PRO; FRET assay, isolated compounds) was 63.21%, the IC50 (SARS-CoV-2 M^PRO; [6]) was 10.3 µM and the “selectivity index CC50/IC50” value [1] was 1.33. For the same compound, the IC50 [1, 8] was 6.14 µg/mL (≈ 37.4 µM), the clinical safety [4] was “safe” and the elimination ([5]; after oral and IV administration) was “rapid-elimination properties”. For the same compound, the “absorption following oral administration” value ([5]; oral) was “relatively slower absorption” and the CC50 (MTT cytotoxicity assay; VERO-E6 cells) was 8.2 µg/mL (≈ 49.9 µM).
In the case of `CC(C)(C)c1ccc(N(C(=O)c2cnc[nH]2)[C@@H](C(=O)NC2CCCCC2)c2cccnc2)cc1` [X77], the IC50 (M^PRO) is given as 2.3 µM.
In the case of `CCCCCCCC(=O)CCc1ccc(O)c(OC)c1` [6-Paradol], the “% Inhibition of SARS-CoV-2 M^PRO” value (SARS-CoV-2 M^PRO; FRET assay, isolated compounds) is reported as 71.8%, the IC50 (SARS-CoV-2 M^PRO; [6]) is reported as 0.168 µM and the “selectivity index CC50/IC50” value [1] is reported as 0.6. For the same compound, the IC50 [1, 7] was 281 µg/mL (≈ 1010 µM) and the CC50 (in vitro) was 155 µg/mL (≈ 557 µM).
